Assays:
[1] = for molar entropy: 101.33 kPa, Vacuum adiabatic calorimetry; for Triple point temperature / Glass transition temperature: Adiabatic calorimetry
[2] = Molar enthalpy of transition or fusion; conditions: Adiabatic calorimetry

CCCCn1cc[n+](C)c1.[I-] [1-butyl-3-methylimidazolium iodide]
molar entropy [J/K/mol], [1]
Conditions	Crystal	Glass	Liquid
0 K	–	15.2	–
5 K	0.279	15.7	–
10 K	2.27	18.7	–
15 K	6.48	24	–
20 K	12.19	30.7	–
25 K	18.74	38.1	–
30 K	25.76	46	–
35 K	32.98	54.1	–
40 K	40.24	62.1	–
45 K	47.47	70.1	–
50 K	54.62	77.9	–
60 K	68.59	93.1	–
70 K	82.02	107.7	–
80 K	94.91	121.6	–
90 K	107.3	135	–
100 K	119.2	147.9	–
110 K	130.6	160.2	–
120 K	141.7	172	–
130 K	152.3	183.5	–
140 K	162.6	194.6	–
150 K	172.6	205.3	–
160 K	182.3	215.8	–
170 K	191.8	226.1	–
180 K	201.1	236.1	–
190 K	210.2	246	–
200 K	219.2	255.8	–
210 K	228.1	–	266.8
220 K	236.8	–	280.1
230 K	245.5	–	292.9
240 K	254.1	–	305.3
250 K	262.7	–	317.3
260 K	271.2	–	328.9
270 K	279.8	–	340.1
280 K	288.5	–	351.1
290 K	297.2	–	361.9
291.92 K	298.8	–	363.9
298.15 K	–	–	370.4
300 K	–	–	372.3
310 K	–	–	382.6
320 K	–	–	392.6
330 K	–	–	402.4
340 K	–	–	412.1
350 K	–	–	421.5
360 K	–	–	430.9
370 K	–	–	440

Conditions	Glass transition temperature, [1] [°C]	Molar enthalpy of transition or fusion, [2] [kcal/mol]	Triple point temperature, [1] [K]
Crystal	–	4.539	291.92
Glass	-66	–	–

CCC[n+]1ccn(C)c1.[Br-] [1-methyl-3-propylimidazolium bromide]
molar entropy [J/K/mol], [1]
Conditions	Crystal 2	Glass	Liquid
0 K	–	15.3	–
5 K	0.097	15.6	–
10 K	0.884	17.7	–
15 K	3.03	21.6	–
20 K	6.53	26.8	–
25 K	11.08	32.9	–
30 K	16.39	39.5	–
35 K	22.19	46.3	–
40 K	28.28	53.3	–
45 K	34.52	60.2	–
50 K	40.8	67.1	–
60 K	53.3	80.6	–
70 K	65.48	93.6	–
80 K	77.24	106.1	–
90 K	88.54	118.1	–
100 K	99.4	129.6	–
110 K	109.8	140.6	–
120 K	119.9	151.2	–
130 K	129.6	161.4	–
140 K	139	171.3	–
150 K	148	180.8	–
160 K	156.9	190.2	–
170 K	165.5	199.3	–
180 K	173.9	208.2	–
190 K	182.2	217	–
200 K	190.2	225.6	–
210 K	198.2	234.3	–
220 K	206.1	–	244.9
230 K	213.8	–	256.5
240 K	221.5	–	267.7
250 K	229.2	–	278.5
260 K	236.8	–	289
270 K	244.4	–	299.2
280 K	252.1	–	309.1
290 K	259.9	–	318.8
298.15 K	266.3	–	326.6
300 K	–	–	328.3
309.54 K	275.4	–	337.2
310 K	–	–	337.6
320 K	–	–	346.7
330 K	–	–	355.6
340 K	–	–	364.4
350 K	–	–	373
360 K	–	–	381.5
370 K	–	–	389.8

Conditions	Glass transition temperature, [1] [°C]	Molar enthalpy of transition or fusion, [2] [kcal/mol]	Triple point temperature, [1] [K]
Crystal 2	–	4.567	309.54
Glass	-60	–	–

Reference: the NIST ThermoML archive (doi:10.1016/j.jct.2014.07.018)
